Measurements as given in DBAASP.
Converted amounts (≈) assume the structure as drawn.

Assays:
Assay in all cases: ≥ marks a high value that may be exact or a test limit, other limits are often not marked, values filed in µg/mL are converted to µM
[1] = system: Klebsiella pneumoniae ATCC 27736
[2] = system: Staphylococcus aureus ATCC 700698
[3] = system: Streptococcus sanguinis ATCC 10556
[4] = system: Candida albicans ATCC 10231
[5] = system: Candida parapsilosis ATCC 22019
[6] = system: Actinomyces viscosus ATCC 15987
[7] = system: Actinomyces naeslundii ATCC 12104
Cryptococcus neoformans = system: Cryptococcus neoformans
[8] = system: Enterococcus faecalis ATCC 29212
[9] = system: Streptococcus sobrinus ATCC 6715
[10] = system: Staphylococcus aureus ATCC 25923
[11] = system: Pseudomonas aeruginosa ATCC BAA-427
[12] = system: Staphylococcus aureus ATCC BAA-44
[13] = system: Bacillus subtilis ATCC 6633
Sporothrix schenckii = system: Sporothrix schenckii
[14] = system: Staphylococcus aureus ATCC 700699
[15] = system: Lacticaseibacillus casei ATCC 393
[16] = system: Lactobacillus acidophilus ATCC 4356
[17] = system: Streptococcus gordonii ATCC 10558
[18] = system: Staphylococcus aureus ATCC 33592
[19] = system: Staphylococcus aureus ATCC 29213
[20] = system: Escherichia coli ATCC 9637
[21] = system: Streptococcus mutans UA159
[22] = system: Limosilactobacillus fermentum ATCC 9338
[23] = system: Streptococcus sanguinis NY101
[24] = system: Streptococcus mitis ATCC 903
Staphylococcus aureus = system: Staphylococcus aureus
[25] = system: Streptococcus gordonii Challis DL1
[26] = system: Pseudomonas aeruginosa PAK
[27] = system: Micrococcus luteus ATCC 10240
Escherichia coli DC2 = system: Escherichia coli DC2
[28] = system: Bacillus subtilis DSM 347
[29] = system: Escherichia coli DSM 1103
[30] = system: Klebsiella pneumoniae DSM 681
Escherichia coli BL21AI = system: Escherichia coli BL21AI
[31] = system: Escherichia coli IFO 3301
[32] = system: Bacillus subtilis IFO 3336
[33] = system: Pseudomonas syringae pv. syringae EPS 94
[34] = system: Erwinia amylovora PMV 6076
[35] = system: Xanthomonas fragariae Xf349-9A
[36] = system: Pseudomonas syringae pv. actinidiae Psa3700.1.1
[37] = system: Xanthomonas campestris pv. Vesicatoria 2133-2
[38] = system: Xanthomonas arboricola pv. pruni CFBP 5563

**Q.** CC[C@H](C)[C@H](NC(=O)[C@H](C)NC(=O)[C@H](CCCCN)NC(=O)CNC(=O)[C@H](C)NC(=O)[C@H](Cc1cnc[nH]1)NC(=O)[C@@H](NC(=O)[C@H](C)NC(=O)CNC(=O)[C@H](CCCCN)NC(=O)[C@@H](NC(=O)[C@H](CC(C)C)NC(=O)[C@H](Cc1c[nH]c2ccccc12)NC(=O)CNC(=O)[C@H](Cc1ccccc1)NC(=O)[C@@H](N)Cc1ccccc1)[C@@H](C)CC)[C@@H](C)CC)C(=O)N[C@@H](Cc1cnc[nH]1)C(=O)NCC(=O)N[C@@H](CC(C)C)C(=O)N[C@H](C(=O)N[C@@H](Cc1cnc[nH]1)C(=O)N[C@@H](CCCN=C(N)N)C(=O)N[C@@H](CCCN=C(N)N)C(=O)N[C@@H](CCCN=C(N)N)C(=O)N[C@@H](Cc1cnc[nH]1)C(=O)O)[C@@H](C)CC [FFGWLIKGAIHAGKAIHGLIHRRRH] was tested. Which MIC [1] did it give?
**A.** 3 µM (≈ 8.68 µg/mL)

**Q.** What about the MIC [2] of the same compound?
**A.** 3 µM (≈ 8.68 µg/mL)

**Q.** And the MIC [3]?
**A.** 1.96 µM (≈ 5.66 µg/mL)

**Q.** What about the MIC [4] of the same compound?
**A.** 6.8 µM (≈ 19.7 µg/mL)

**Q.** And the MIC [5]?
**A.** 3 µM (≈ 8.68 µg/mL)

**Q.** What about the MIC [6] of the same compound?
**A.** 2.77 µM (≈ 8 µg/mL)

**Q.** And the MIC [7]?
**A.** 2.77 µM (≈ 8 µg/mL)

**Q.** What about the MIC (Cryptococcus neoformans) of the same compound?
**A.** 3 µM (≈ 8.68 µg/mL)

**Q.** What about the MIC [8] of the same compound?
**A.** 3.91 µM (≈ 11.3 µg/mL)

**Q.** And the MIC [9]?
**A.** 1.38 µM (≈ 4 µg/mL)

**Q.** And the MIC [10]?
**A.** 3 µM (≈ 8.68 µg/mL)

**Q.** What about the MIC [11] of the same compound?
**A.** 6.8 µM (≈ 19.7 µg/mL)

**Q.** And the MIC [12]?
**A.** 1.6 µM (≈ 4.63 µg/mL)

**Q.** What about the MIC [13] of the same compound?
**A.** 6 µM (≈ 17.4 µg/mL)

**Q.** And the MIC (Sporothrix schenckii)?
**A.** 13.6 µM (≈ 39.3 µg/mL)

**Q.** And the MIC [14]?
**A.** 1.6 µM (≈ 4.63 µg/mL)

**Q.** And the MIC [15]?
**A.** 1.38 µM (≈ 4 µg/mL)

**Q.** What about the MIC [16] of the same compound?
**A.** 1.96 µM (≈ 5.66 µg/mL)

**Q.** And the MIC [17]?
**A.** 2.77 µM (≈ 8 µg/mL)

**Q.** And the MIC [18]?
**A.** 1.6 µM (≈ 4.63 µg/mL)

**Q.** And the MIC [19]?
**A.** 1.6 µM (≈ 4.63 µg/mL)

**Q.** What about the MIC [20] of the same compound?
**A.** 3.4 µM (≈ 9.83 µg/mL)

**Q.** And the MIC [21]?
**A.** 1.38 µM (≈ 4 µg/mL)

**Q.** And the MIC [22]?
**A.** 1.38 µM (≈ 4 µg/mL)

**Q.** For CC[C@H](C)[C@H](NC(=O)[C@H](Cc1ccccc1)NC(=O)[C@H](Cc1cnc[nH]1)NC(=O)[C@H](CCCCN)NC(=O)[C@@H](NC(=O)[C@@H](N)Cc1ccccc1)[C@@H](C)CC)C(=O)N[C@@H](Cc1cnc[nH]1)C(=O)N[C@@H](CCCN=C(N)N)C(=O)N[C@@H](Cc1ccccc1)C(=O)NCC(=O)NCC(=O)NCC(=O)N[C@@H](Cc1ccccc1)C(=O)N[C@@H](CCCCN)C(=O)N[C@@H](CCCCN)C(=O)N[C@@H](Cc1ccccc1)C(=O)N[C@@H](Cc1c[nH]c2ccccc12)C(=O)N[C@@H](CCCCN)C(=O)N[C@@H](Cc1c[nH]c2ccccc12)C(=O)N[C@@H](Cc1ccccc1)C(=O)N[C@@H](CCCN=C(N)N)C(=O)N[C@@H](CCCN=C(N)N)C(=O)N[C@@H](Cc1ccccc1)C(N)=O [FIKHFIHRFGGGFKKFWKWFRRF], which MIC [23] is on record?
**A.** 5.21 µM (≈ 16 µg/mL)

**Q.** What about the MIC [24] of the same compound?
**A.** 10.4 µM (≈ 32 µg/mL)

**Q.** And the MIC (Staphylococcus aureus)?
**A.** 5.21 µM (≈ 16 µg/mL)

**Q.** And the MIC [25]?
**A.** 20.3 µM (≈ 62.5 µg/mL)

**Q.** What about the MIC [26] of the same compound?
**A.** 20.3 µM (≈ 62.5 µg/mL)

**Q.** And the MIC [21]?
**A.** 1.3 µM (≈ 4 µg/mL)

**Q.** For CC[C@H](C)[C@H](NC(=O)[C@H](Cc1ccc(O)cc1)NC(=O)[C@@H](NC(=O)[C@@H]1CCCN1C(=O)[C@H](CCCCN)NC(=O)[C@H](CC(N)=O)NC(=O)[C@H](CC(N)=O)NC(=O)CN)C(C)C)C(=O)N1CCC[C@H]1C(=O)N[C@@H](CCCN=C(N)N)C(=O)N1CCC[C@H]1C(=O)N[C@@H](CCCN=C(N)N)C(=O)N1CCC[C@H]1C(=O)N1CCC[C@H]1C(=O)N[C@@H](Cc1cnc[nH]1)C(=O)N1CCC[C@H]1C(=O)N[C@@H](CCCN=C(N)N)C(=O)N[C@@H](CC(C)C)C(=O)N[C@H](C(N)=O)C(C)C [GNNKPVYIPRPRPPHPRLV], which MIC [27] is on record?
**A.** 0.109 µM (≈ 0.24 µg/mL)

**Q.** And the MIC (Escherichia coli DC2)?
**A.** 3.54 µM (≈ 7.81 µg/mL)

**Q.** And the MIC [28]?
**A.** ≥ 56.6 µM

**Q.** And the MIC [29]?
**A.** 1.77 µM (≈ 3.9 µg/mL)

**Q.** And the MIC [30]?
**A.** 14.2 µM (≈ 31.2 µg/mL)

**Q.** What about the MIC (Escherichia coli BL21AI) of the same compound?
**A.** 3.54 µM (≈ 7.81 µg/mL)

**Q.** With CC[C@H](C)[C@H](NC(=O)[C@H](Cc1ccc(O)cc1)NC(=O)[C@@H](NC(=O)[C@@H]1CCCN1C(=O)[C@H](CCCN=C(N)N)NC(=O)[C@H](CC(N)=O)NC(=O)[C@H](CC(N)=O)NC(=O)CNC(C)=O)C(C)C)C(=O)N1CCC[C@H]1C(=O)N[C@@H](CCCN=C(N)N)C(=O)N1CCC[C@H]1C(=O)N[C@@H](CCCN=C(N)N)C(=O)N1CCC[C@H]1C(=O)N1CCC[C@H]1C(=O)N[C@@H](Cc1cnc[nH]1)C(=O)N1CCC[C@H]1C(=O)N[C@@H](CCCN=C(N)N)C(=O)N[C@@H](CC(C)C)C(N)=O [GNNRPVYIPRPRPPHPRL] as the compound, how does the MIC [27] read?
**A.** 0.913 µM (≈ 1.99 µg/mL)

**Q.** What about the MIC (Escherichia coli DC2) of the same compound?
**A.** 1.83 µM (≈ 3.97 µg/mL)

**Q.** What about the MIC [28] of the same compound?
**A.** ≥ 58.5 µM

**Q.** And the MIC [29]?
**A.** 1.83 µM (≈ 3.97 µg/mL)

**Q.** And the MIC [30]?
**A.** 1.83 µM (≈ 3.97 µg/mL)

**Q.** What about the MIC (Escherichia coli BL21AI) of the same compound?
**A.** 1.49 µM (≈ 3.25 µg/mL)

**Q.** With NC(N)=NCCC[C@H](NC(=O)[C@H](Cc1cnc[nH]1)NC(=O)[C@H](CCCN=C(N)N)NC(=O)[C@H](Cc1cnc[nH]1)NC(=O)[C@H](CCCN=C(N)N)NC(=O)[C@H](Cc1cnc[nH]1)NC(=O)[C@@H](N)CCCN=C(N)N)C(=O)N[C@@H](Cc1cnc[nH]1)C(=O)O [RHRHRHRH] as the compound, how does the MIC [31] read?
**A.** 8.39 µM (≈ 10 µg/mL)

**Q.** And the MIC [32]?
**A.** 8.39 µM (≈ 10 µg/mL)

**Q.** CSCC[C@H](NC(=O)[C@@H](NC(=O)[C@H](Cc1ccc(O)cc1)NC(=O)[C@H](CO)NC(=O)[C@H](CS)NC(=O)[C@@H](N)Cc1ccc(O)cc1)[C@@H](C)O)C(=O)N[C@@H](CCC(=O)O)C(=O)N[C@@H](C)C(N)=O [YCSYTMEA] was tested. Which MIC [33] did it give?
**A.** ≥ 50 µM

**Q.** What about the MIC [34] of the same compound?
**A.** ≥ 50 µM

**Q.** What about the MIC [35] of the same compound?
**A.** ≥ 50 µM

**Q.** What about the MIC [36] of the same compound?
**A.** ≥ 50 µM

**Q.** What about the MIC [37] of the same compound?
**A.** ≥ 50 µM

**Q.** What about the MIC [38] of the same compound?
**A.** ≥ 50 µM
